Measurements as given in patent US5166204A, “Isoindole derivatives and salts thereof and antitumor agent comprising the same” (Toyama Chemical Co., Ltd., priority 1989, dated 1992).
≈ marks a conversion by molar mass, not a printed value.

test system: HeLa S-3 cells; test: HeLa S-3 cell growth inhibition test; assay type: cell-based; settings: Homo sapiens, 96 h, read-out: minimum growth inhibition concentration (MIC)
Method: (a) HeLa S-3 Cell Growth Inhibition Test
A test compound was appropriately diluted with a liquid medium (a minimum essential medium containing a 10% fecal calf serum). The resulting liquid was poured into each well of a 96-well micro titer plate, in an amount of 0.1 ml/well. Then, HeLa S-3 cells were diluted with the same liquid medium so that the cell concentration became 2×10^4 cells/ml, and the resulting liquid was poured into each well of the above plate in an amount of 0.1 ml/well. The resulting plate was allowed to stand in a CO2 gas incubator of 37° C. for 4 days, to effect incubation. After the incubation, the supernatant liquid in each well was removed and fixation by ethanol was effected for 10 minutes. The fixed cells were tinted with a Giemsa's staining solution to determine the minimum growth inhibition concentration (MIC) of test compound for HeLa S-3 cells.

SMILES | MIC
Cc1cc2c(c3c1[nH]c1ccc(OC(=O)N4CCCCC4)cc13)C(=O)N(CCN(C)C)C2=O [compound 44] | 0.8 mg/L (≈ 1.78 µM)
Cc1cc2c(c3c1[nH]c1ccc(OC(=O)N4CCOCC4)cc13)C(=O)N(CCN(C)C)C2=O [compound 50] | 3.13 mg/L (≈ 6.95 µM)
Cc1cc2c(c3c1[nH]c1ccc(OC(=O)N4CCC(N5CCCCC5)CC4)cc13)C(=O)N(CCN(C)C)C2=O [compound 55] | 2.5 mg/L (≈ 4.7 µM)
Cc1c2c(c3c([nH]c4ccc(OC(=O)N5CCC(N6CCCCC6)CC5)cc43)c1C)C(=O)N(CCN(C)C)C2=O [compound 75] | 0.08 mg/L (≈ 0.147 µM)

same assay, conditions: Homo sapiens, 96 h; HeLa S-3 cells, 37° C., 4 days, Giemsa's staining; read-out: minimum growth inhibition concentration (MIC)

MIC | SMILES
0.2 mg/L (≈ 0.547 µM) | CCCc1cc2c(c3c1[nH]c1ccc(O)cc13)C(=O)N(CCN(C)C)C2=O [compound 51]
0.4 mg/L (≈ 1.09 µM) | CC(C)c1cc2c(c3c1[nH]c1ccc(O)cc13)C(=O)N(CCN(C)C)C2=O [compound 52]
0.8 mg/L (≈ 2.03 µM) | Cc1cc2c(c3c1[nH]c1ccc(O)cc13)C(=O)N(CCN(C(C)C)C(C)C)C2=O [compound 53]
0.31 mg/L (≈ 0.817 µM) | CN(C)CCN1C(=O)c2cc(C(C)(C)C)c3[nH]c4ccc(O)cc4c3c2C1=O [compound 54]
0.4 mg/L (≈ 1.09 µM) | COc1ccc2sc3c(C)cc4c(c3c2c1)C(=O)N(CCN(C)C)C4=O [compound 56]
1 mg/L (≈ 2.72 µM) | COCc1cc2c(c3c1[nH]c1ccc(O)cc13)C(=O)N(CCN(C)C)C2=O [compound 57]
1.25 mg/L (≈ 3.19 µM) | COc1ccc2[nH]c3c(C4CCC4)cc4c(c3c2c1)C(=O)N(CCN(C)C)C4=O [compound 58]
0.1 mg/L (≈ 0.264 µM) | CCCCc1cc2c(c3c1[nH]c1ccc(O)cc13)C(=O)N(CCN(C)C)C2=O [compound 60]
0.2 mg/L (≈ 0.523 µM) | CCN(CC)CCN1C(=O)c2cc(C)c3sc4ccc(O)cc4c3c2C1=O [compound 62]
1.25 mg/L (≈ 3.08 µM) | CN(C)CCN1C(=O)c2cc(C3CCCCC3)c3[nH]c4ccc(O)cc4c3c2C1=O [compound 63]
0.63 mg/L (≈ 1.87 µM) | CNCCN1C(=O)c2cc(C)c3[nH]c4ccc(OC)cc4c3c2C1=O [compound 64]
0.63 mg/L (≈ 1.95 µM) | COc1ccc2[nH]c3c(C)cc4c(c3c2c1)C(=O)N(CCN)C4=O [compound 65]
2.5 mg/L (≈ 7.71 µM) | CN(C)CCN1C(=O)c2ccc3sc4ccccc4c3c2C1=O [compound 66]
2 mg/L (≈ 5.11 µM) | CN(C)CCN1C(=O)c2cc(C(F)(F)F)c3[nH]c4ccc(O)cc4c3c2C1=O [compound 67]
0.4 mg/L (≈ 1.29 µM) | Cc1cc2c(c3c1[nH]c1ccc(O)cc13)C(=O)N(CCN)C2=O [compound 68]
0.16 mg/L (≈ 0.409 µM) | CN(C)CCN1C(=O)c2cc(C3CCCC3)c3[nH]c4ccc(O)cc4c3c2C1=O [compound 72]
0.8 mg/L (≈ 2.12 µM) | CN(C)CCN1C(=O)c2cc(C3(C)CC3)c3[nH]c4ccc(O)cc4c3c2C1=O [compound 73]
0.16 mg/L (≈ 0.455 µM) | Cc1cc2c(c3c1[nH]c1ccc(O)cc13)C(=O)N(CCNC(C)C)C2=O [compound 76]
0.63 mg/L (≈ 1.71 µM) | CSc1cc2c(c3c1[nH]c1ccc(O)cc13)C(=O)N(CCN(C)C)C2=O [compound 77]

MIC | SMILES
0.04 mg/L (≈ 0.0963 µM) | CN(C)CCN1C(=O)c2cc(Oc3ccccc3)c3[nH]c4ccc(O)cc4c3c2C1=O [compound 78]
1.6 mg/L (≈ 3.56 µM) | COc1ccc2[nH]c3c(-c4ccc(F)cc4F)cc4c(c3c2c1)C(=O)N(CCN(C)C)C4=O [compound 79]
0.08 mg/L (≈ 0.218 µM) | CCOc1cc2c(c3c1[nH]c1ccc(O)cc13)C(=O)N(CCN(C)C)C2=O [compound 80]
0.16 mg/L (≈ 0.455 µM) | CCN(C)CCN1C(=O)c2cc(C)c3[nH]c4ccc(O)cc4c3c2C1=O [compound 81]
0.4 mg/L (≈ 1.09 µM) | COc1ccc2[nH]c3c(C)cc4c(c3c2c1)C(=O)N(CCNCCO)C4=O [compound 82]
0.16 mg/L (≈ 0.362 µM) | Cc1cc2c(c3c1[nH]c1ccc(OC(=O)c4ccncc4)cc13)C(=O)N(CCN(C)C)C2=O [compound 83]
2.5 mg/L (≈ 6.24 µM) | CN(C)CCN1C(=O)c2c(-c3ccncc3)cc3[nH]c4ccc(O)cc4c3c2C1=O [compound 84]
0.08 mg/L (≈ 0.18 µM) | COc1ccc(Oc2cc3c(c4c2[nH]c2ccc(O)cc24)C(=O)N(CCN(C)C)C3=O)cc1 [compound 85]
0.16 mg/L (≈ 0.371 µM) | CN(C)CCN1C(=O)c2cc(Oc3ccc(O)cc3)c3[nH]c4ccc(O)cc4c3c2C1=O [compound 86]
5 mg/L (≈ 12.7 µM) | COc1ccc2[nH]c3c(C)cc4c(c3c2c1)C(=O)N(CCN1CCOCC1)C4=O [compound 87]
2.5 mg/L (≈ 6.59 µM) | Cc1cc2c(c3c1[nH]c1ccc(O)cc13)C(=O)N(CCN1CCOCC1)C2=O [compound 88]
0.16 mg/L (≈ 0.361 µM) | CCN(CC)CCN1C(=O)c2cc(Oc3ccccc3)c3[nH]c4ccc(O)cc4c3c2C1=O [compound 89]
1.56 mg/L (≈ 3.97 µM) | Cc1cc2c(c3c1[nH]c1ccc(O)cc13)C(=O)N(CCN1CCN(C)CC1)C2=O [compound 90]
1.25 mg/L (≈ 3.15 µM) | Cc1cc2c(c3c1[nH]c1ccc(O)cc13)C(=O)N(CCN(CCO)CCO)C2=O [compound 91]
0.32 mg/L (≈ 0.881 µM) | C=Cc1cc2c(c3c1[nH]c1ccc(OC)cc13)C(=O)N(CCN(C)C)C2=O [compound 92]
3.2 mg/L (≈ 6.76 µM) | COc1cc2c(cc1Br)[nH]c1c(CN(C)C)cc3c(c12)C(=O)N(CCN(C)C)C3=O [compound 93]
6.25 mg/L | Cc1cc2c(c3c1[nH]c1ccc(O)cc13)C(=O)N(CC[N+](C)(C)C)C2=O [compound 94]
1.56 mg/L (≈ 3.96 µM) | CNC(=O)n1c2ccc(O)cc2c2c3c(cc(C)c21)C(=O)N(CCN(C)C)C3=O [compound 95]

The remaining lines, values behind:

SMILES | MIC
CCc1cc2[nH]c3ccccc3c2c2c1C(=O)N(CCN(C)C)C2=O [compound 4] | 0.2 mg/L (≈ 0.596 µM)
Cc1c2c(c3c([nH]c4ccccc43)c1C)C(=O)N(CCN(C)C)C2=O [compound 5] | 0.125 mg/L (≈ 0.373 µM)
Cc1cc2c(c3c4ccccc4n(C)c13)C(=O)N(CCN(C)C)C2=O [compound 6] | 0.8 mg/L (≈ 2.39 µM)
CN(C)CCN1C(=O)c2cc(-c3ccccc3)c3[nH]c4ccccc4c3c2C1=O [compound 7] | 0.8 mg/L (≈ 2.09 µM)
CN(C)CCN1C(=O)c2ccc3[nH]c4cc(Cl)ccc4c3c2C1=O [compound 8] | 3.13 mg/L (≈ 9.16 µM)
CN(C)CCN1C(=O)c2ccc3c(c2C1=O)c1cc(Cl)ccc1n3C [compound 10] | 0.8 mg/L (≈ 2.25 µM)
CN(C)CCN1C(=O)c2ccc3[nH]c4ccc(F)cc4c3c2C1=O [compound 11] | 3.13 mg/L (≈ 9.62 µM)
Cc1ccc2[nH]c3ccc4c(c3c2c1)C(=O)N(CCN(C)C)C4=O [compound 12] | 3.13 mg/L (≈ 9.74 µM)
COc1cccc2c1[nH]c1ccc3c(c12)C(=O)N(CCN(C)C)C3=O [compound 13] | 3.13 mg/L (≈ 9.28 µM)
COc1ccc2c(c1)[nH]c1ccc3c(c12)C(=O)N(CCN(C)C)C3=O [compound 14] | 1.56 mg/L (≈ 4.62 µM)
COc1ccc2[nH]c3c(C)cc4c(c3c2c1)C(=O)N(CCN(C)C)C4=O [compound 16] | 0.2 mg/L (≈ 0.569 µM)
COc1ccc2c(c1)[nH]c1c(C)cc3c(c12)C(=O)N(CCN(C)C)C3=O [compound 18] | 0.8 mg/L (≈ 2.28 µM)
COc1ccc2c(c1)c1c3c(ccc1n2C)C(=O)N(CCN(C)C)C3=O [compound 19] | 0.4 mg/L (≈ 1.14 µM)
CCn1c2ccc(OC)cc2c2c3c(ccc21)C(=O)N(CCN(C)C)C3=O [compound 20] | 1.56 mg/L (≈ 4.27 µM)
COc1ccc2c(c1)c1c3c(ccc1n2C(C)=O)C(=O)N(CCN(C)C)C3=O [compound 21] | 3.13 mg/L (≈ 8.25 µM)
Cc1cc2[nH]c3ccc(O)cc3c2c2c1C(=O)N(CCN(C)C)C2=O [compound 25] | 0.04 mg/L (≈ 0.119 µM)
Cc1c2c(c3c([nH]c4ccc(O)cc43)c1C)C(=O)N(CCN(C)C)C2=O [compound 26] | 0.016 mg/L (≈ 0.0455 µM)
CCn1c2ccc(O)cc2c2c3c(ccc21)C(=O)N(CCN(C)C)C3=O [compound 29] | 3.13 mg/L (≈ 8.91 µM)
O=C1c2ccc3[nH]c4ccc(O)cc4c3c2C(=O)N1CCN1CCCCC1 [compound 33] | 3.13 mg/L (≈ 8.61 µM)
COc1ccc2[nH]c3ccc4c(c3c2c1)C(=O)N(CCN1CCN(C)CC1)C4=O [compound 34] | 3.13 mg/L (≈ 7.98 µM)
CN(C)CCN1C(=O)c2c(O)cc3[nH]c4ccc(O)cc4c3c2C1=O [compound 35] | 2 mg/L (≈ 5.89 µM)
COc1ccc2[nH]c3cc(OC)c4c(c3c2c1)C(=O)N(CCN(C)C)C4=O [compound 36] | 0.8 mg/L (≈ 2.18 µM)
COc1cc2c(c3c1[nH]c1ccc(OCc4ccccc4)cc13)C(=O)N(CCN(C)C)C2=O [compound 37] | 0.2 mg/L (≈ 0.451 µM)
COc1ccc2[nH]c3c(OC)cc4c(c3c2c1)C(=O)N(CCN(C)C)C4=O [compound 40] | 0.2 mg/L (≈ 0.544 µM)
CN(C)CCN1C(=O)c2cc(O)c3[nH]c4ccc(O)cc4c3c2C1=O [compound 41] | 0.8 mg/L (≈ 2.36 µM)
Cc1cc2c(c3c1oc1ccccc13)C(=O)N(CCN(C)C)C2=O [compound 43] | 2.5 mg/L (≈ 7.76 µM)
CC(=O)Oc1ccc2[nH]c3c(C)cc4c(c3c2c1)C(=O)N(CCN(C)C)C4=O [compound 45] | 0.16 mg/L (≈ 0.422 µM)
Cc1cc(O)cc2c1[nH]c1ccc3c(c12)C(=O)N(CCN(C)C)C3=O [compound 46] | 3.13 mg/L (≈ 9.28 µM)
Cc1cc2c(c3c1sc1ccccc13)C(=O)N(CCN(C)C)C2=O [compound 47] | 0.2 mg/L (≈ 0.591 µM)
Cc1cc2c(c3c1S(=O)(=O)c1ccccc1-3)C(=O)N(CCN(C)C)C2=O [compound 48] | 2.5 mg/L (≈ 6.75 µM)
